Measured values published in paper PMC3066644 (Journal of Lipids, 2010).
pIC50: −log10 of the molar value.

Tests used:
acid ceramidase (aCDase) [1] = biological target: T1, acid ceramidase (aCDase) (Homo sapiens, UniProt Q13510); assay: micellar aCDase assay with recombinant human enzyme, HPLC fluorescence detection of sphingosine; assay type: biochemical
T1 construct: gene ASAH1
T1 sequence (Q13510 22-142): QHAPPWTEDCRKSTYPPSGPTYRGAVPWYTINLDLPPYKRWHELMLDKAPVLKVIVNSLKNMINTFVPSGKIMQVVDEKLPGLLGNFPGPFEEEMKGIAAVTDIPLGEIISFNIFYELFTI
T1 sequence (Q13510 143-395): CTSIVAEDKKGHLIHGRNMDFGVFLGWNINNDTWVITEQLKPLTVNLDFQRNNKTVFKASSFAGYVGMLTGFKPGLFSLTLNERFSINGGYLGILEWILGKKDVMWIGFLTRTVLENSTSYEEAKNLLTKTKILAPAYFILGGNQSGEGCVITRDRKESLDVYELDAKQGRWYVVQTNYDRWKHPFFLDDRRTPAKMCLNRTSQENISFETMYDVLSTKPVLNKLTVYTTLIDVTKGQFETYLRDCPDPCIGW

acid ceramidase (aCDase) [2] = biological target: T1, acid ceramidase (aCDase); assay: micellar aCDase assay at […] inhibitor, recombinant human enzyme; assay type: biochemical

| pIC50 (acid ceramidase (aCDase) [1]) | SMILES | micellar aCDase assay at 2.5 μM inhibitor, recombinant human enzyme (acid ceramidase (aCDase) [2]) |
| --- | --- | --- |
| 5.89 | CCCCCCCCCCCCCC(=O)NCC(O)c1ccccc1 (racemic) [DP24a, N-(2-Hydroxy-2-Phenylethyl)-Tetradecanamide] | – |
| – | CCCCCCCCCCCCCC(=O)NCC(O)c1cccnc1 (racemic) [DP24c, N-(2-Hydroxy-2-(Pyridin-3-yl)-Ethyl)Tetradecanamide] | Although DP24c provides a basic moiety, it showed at least the same inhibition as DP24a or DP24b |
| – | CCCCCCCCCCCCCCNC(=O)NCC(O)c1ccccc1 (racemic) [DP25a, 1-(2-Hydroxy-2-Phenylethyl)-3-Tetradecylurea] | Evaluation in the aCDase assay revealed only a slightly better inhibition |
| – | CCCCCCCCCCCCCCNC(=O)NCC(O)c1cccnc1 (racemic) [DP25c, 1-(2-Hydroxy-2-(Pyridin-3-yl)Ethyl)-3-Tetradecylurea] | Evaluation in the aCDase assay revealed only a slightly better inhibition |
